Data: PMC10149104 (Journal of medicinal chemistry, 2023)

Assays:
[1] = biological target: T1, recombinant human PEPD (Homo sapiens, UniProt P12955); assay: Inhibition of recombinant PEPD, alanine release assay; type: biochemical
T1 sequence (P12955 1-493): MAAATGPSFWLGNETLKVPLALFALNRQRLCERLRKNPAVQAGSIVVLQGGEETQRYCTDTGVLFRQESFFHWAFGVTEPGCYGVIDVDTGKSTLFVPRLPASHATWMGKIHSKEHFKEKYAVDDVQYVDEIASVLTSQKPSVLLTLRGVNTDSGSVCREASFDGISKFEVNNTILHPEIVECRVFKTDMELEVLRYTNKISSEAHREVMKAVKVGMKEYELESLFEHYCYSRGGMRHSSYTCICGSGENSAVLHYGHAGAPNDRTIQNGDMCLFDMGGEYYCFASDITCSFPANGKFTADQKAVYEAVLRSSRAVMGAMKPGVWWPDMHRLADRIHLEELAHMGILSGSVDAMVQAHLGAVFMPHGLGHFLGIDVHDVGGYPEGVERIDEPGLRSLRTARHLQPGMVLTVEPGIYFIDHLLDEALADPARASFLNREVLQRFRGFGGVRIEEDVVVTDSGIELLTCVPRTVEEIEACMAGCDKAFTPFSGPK

[2] = biological target: recombinant XPNPEP1 (Homo sapiens, UniProt Q9NQW7); assay: Inhibition of recombinant XPNPEP1, H-Lys; type: biochemical; settings: recombinant XPNPEP1
[3] = tested on: MV4;11 WT cells; assay: CellTiter-Glo cell viability, WT MV4; type: cell-based, human; settings: CTG, 24 h

recombinant XPNPEP1, sequence (Q9NQW7 whole entry): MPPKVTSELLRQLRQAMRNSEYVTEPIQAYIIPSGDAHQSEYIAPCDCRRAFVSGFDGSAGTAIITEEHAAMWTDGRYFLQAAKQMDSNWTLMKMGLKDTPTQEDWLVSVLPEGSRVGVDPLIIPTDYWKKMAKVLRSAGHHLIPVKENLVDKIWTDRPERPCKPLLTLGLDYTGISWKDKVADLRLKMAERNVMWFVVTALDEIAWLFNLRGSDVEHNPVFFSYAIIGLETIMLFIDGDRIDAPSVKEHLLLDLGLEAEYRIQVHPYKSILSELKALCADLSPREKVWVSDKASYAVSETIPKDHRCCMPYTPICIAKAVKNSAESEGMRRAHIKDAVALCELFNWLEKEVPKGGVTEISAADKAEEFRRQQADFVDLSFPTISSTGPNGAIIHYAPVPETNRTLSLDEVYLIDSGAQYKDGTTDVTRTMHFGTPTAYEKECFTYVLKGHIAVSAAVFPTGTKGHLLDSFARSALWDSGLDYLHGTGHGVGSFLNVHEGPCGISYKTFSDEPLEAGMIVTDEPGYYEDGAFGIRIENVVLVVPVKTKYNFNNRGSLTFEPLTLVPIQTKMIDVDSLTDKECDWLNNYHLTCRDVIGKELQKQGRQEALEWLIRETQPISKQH

## CC(C)C[C@@H](N)C(O)C(=O)N1CCC[C@H]1C(=O)O (stereo partly drawn) [CQ04, (2S,3R)-3-amino-2-hydroxy-5-methyl-hexanoyl-proline]
[1]
  PEPD inhibition (in words): more potent than CQ31
[2]
  XPNPEP1 inhibition (in words): more potent than CQ31

## COC(=O)[C@@H]1C[C@H](O)CN1C(=O)[C@@H](O)[C@H](N)CC(C)C [CQ39, Methyl (2S,4S)-1-((2S,3R)-3-Amino-2-hydroxy-5-methylhexano-yl)-4-hydroxypyrrolidine-2-carboxylate]
[3]
  Cytotoxicity / activity against MV4;11 cells (in words): completely inactive

## COC(=O)[C@@H]1CCCN1C(=O)[C@@H](O)[C@H](N)Cc1ccccc1 [CQ42, Methyl ((2S,3R)-3-Amino-2-hydroxy-4-phenylbutanoyl)-l-prolinate]
[3]
  Cytotoxicity / activity against MV4;11 cells (in words): almost completely inactive

## COC(=O)[C@@H]1CCCN1C(=O)[C@@H](O)[C@H](N)C12CC3CC(CC(C3)C1)C2 [CQ47, Methyl ((2S,3R)-3-(Adamantan-1-yl)-3-amino-2-hydroxypropanoyl)-l-prolinate]
[3]
  Cytotoxicity / activity against MV4;11 cells (in words): almost completely inactive

## CC(C)C[C@@H](N)[C@H](O)C(=O)N1CCC[C@H]1C(N)=O [CQ49, (S)-1-((2S,3R)-3-Amino-2-hydroxy-5-methylhexanoyl)-pyrrolidine-2-carboxamide]
[3]
  Cytotoxicity / activity against MV4;11 cells (in words): retained similar PEPD/XPNPEP1 inhibition and cytotoxicity as CQ31

## CC(C)C[C@@H](N)[C@H](O)C(=O)N1CCC[C@H]1CNS(C)(=O)=O [CQ53, N-(((S)-1-((2S,3R)-3-Amino-2-hydroxy-5-methylhexanoyl)-pyrrolidin-2-yl)methyl)methanesulfon-amide]
[3]
  Cytotoxicity / activity against MV4;11 cells (in words): completely inactive in cells

## CONC(=O)[C@@H]1CCCN1C(=O)[C@@H](O)[C@H](N)CC(C)C [CQ55, (S)-1-((2S,3R)-3-Amino-2-hydroxy-5-methylhexanoyl)-N-methoxypyrrolidine-2-carboxamide]
[3]
  Cytotoxicity / activity against MV4;11 cells (in words): completely inactive in cells

## COC(=O)[C@@H]1CCCN1C(=O)[C@@H](O)[C@H](N)C1CC1 [CQ62, Methyl ((2S,3R)-3-Amino-3-cyclopropyl-2-hydroxypropanoyl)-l-prolinate]
[3]
  Cytotoxicity / activity against MV4;11 cells (in words): almost completely inactive

## COC(=O)[C@@H]1CCCN1C(=O)[C@@H](O)[C@H](N)CCCCO [CQ75]
[3]
  Cytotoxicity / activity against MV4;11 cells (in words): lost cytotoxicity
[1]
  PEPD inhibition (in words): retained PEPD inhibition

## CC(C)C[C@@H](N)[C@H](O)C(=O)N1CCCC1 [CQ76, (2S,3R)-3-Amino-2-hydroxy-5-methyl-1-(pyrrolidin-1-yl)hexan-1-one]
[3]
  Cytotoxicity / activity against MV4;11 cells (in words): abrogated all activity

## CC(C)C[C@H](NC(=O)[C@@H]1CCCN1C(=O)[C@@H](O)[C@H](N)CC(C)C)C(=O)O [CQ92]
[1]
  PEPD inhibition (in words): more potent inhibitor of both PEPD and XPNPEP1 than CQ80
[2]
  XPNPEP1 inhibition (in words): more potent inhibitor of both PEPD and XPNPEP1 than CQ80

## CC(C)C[C@@H](N)[C@H](O)C(=O)N1CCC[C@H]1C(=O)OC1CCCC1 [CQ94, Cyclopentyl ((2S,3R)-3-Amino-2-hydroxy-5-methylhexanoyl)-L-prolinate]
[3]
  Cytotoxicity / activity against MV4;11 cells (in words): slightly more toxic
[1]
  PEPD inhibition (in words): inhibited PEPD and XPNPEP1 similarly
[2]
  XPNPEP1 inhibition (in words): inhibited PEPD and XPNPEP1 similarly

## CC(C)CCNC(=O)[C@@H]1CCCN1C(=O)[C@@H](O)[C@H](N)CC(C)C [CQ95, (S)-1-((2S,3R)-3-Amino-2-hydroxy-5-methylhexanoyl)-N-isopentylpyrrolidine-2-carboxamide]
[3]
  Cytotoxicity / activity against MV4;11 cells (in words): retained similar PEPD/XPNPEP1 inhibition and cytotoxicity as CQ31

## CC(C)C[C@@H](N)[C@H](O)C(=O)N1CCC[C@H]1c1nnn[nH]1 [CQ99, (2S,3R)-1-((S)-2-(1H-Tetrazol-5-yl)pyrrolidin-1-yl)-3-amino-2-hydroxy-5-methylhexan-1-one]
[3]
  Cytotoxicity / activity against MV4;11 cells (in words): completely inactive in cells
